Measured values reported in PMC5045942, “Evaluation of a novel PXR‐knockout in HepaRG™ cells” (Pharmacology Research & Perspectives, 2016).
Values joined by “and” are separate entries in the source; they are usually repeats but may differ in a detail not shown here. Equal entries are not always repeated. Where two headings read alike, the source gives them in different places.

Legend:
CYP3A4 mRNA [1] = test: CYP3A4 mRNA induction in HepaRG wild-type cells (real-time PCR); conditions: for E max, induction of CYP3A4 mRNA, HepaRG: E max ± SD; for EC50: human
Protocol: (§1) HepaRG cells were thawed in thawing and maintenance medium and plated into 96‐well collagen‐1‐coated plates at a volume of 200 μL/well. The cells were incubated at 37°C in a humidified incubator with 5% CO2 for 72 h. Test compounds were freshly dissolved in DMSO and then serum‐free induction medium to achieve a final DMSO concentration of 0.1% every 24 h.
(§2) mRNA was extracted from the cell monolayers using the SV96 total RNA isolation system according to the manufacturer's instructions. Reverse transcription of mRNA to cDNA was completed using Taqman reverse transcription (RT) assay. […] An Agilent Mx3005P thermocycler was used to run a thermal cycle of: 10 min at 25°C, 30 min at 37°C, 5 min at 95°C, and a hold phase at 4°C.
(§3) An Agilent Mx3005P thermocycler was used to determine the gene expression of selected genes. Real‐time PCR solutions were prepared as described by the manufacturer. Each reaction contained 12.5 μL volume. […] PCR conditions were 15 min at 95°C (to activate polymerase, denature cDNA, and initiate PCR) followed by 40 cycles of 15 sec at 94°C (denaturation), and 60 sec at 60°C (annealing/extension of the product). Fluorescence was measured at the end of each cycle.
(§4) Gene expression data were compared to an average of GAPDH and normalized to the control sample using the comparative threshold cycle (C(t)) method (Ct = 2^−∆∆C(t)). […] Where possible data were fitted to a sigmoidal E max model (WinNonLin Phoenix, Pharsight, 6.3.0.395). All human hepatocyte data are the average of duplicate experiments and three compound concentrations. HepaRG WT are the average of triplicate experiments completed in duplicate. HepaRG 5F and HepaRG PXR‐KO data are the average of duplicate experiments and duplicate replicates of each compound concentration (six concentrations).

CYP2B6 mRNA [2] = test: CYP2B6 mRNA induction in 5F HepaRG control cells (real-time PCR); assay type: in vitro ADME, human; conditions: for E max, induction of CYP2B6 mRNA, 5F / EC50 / EC50 at 48 h: 5F cells; for EC50 at 48 h: human
Protocol: (§5) 5F, CAR‐KO, and PXR‐KO HepaRG cells were thawed in recovery medium and plated into 96‐well collagen‐1‐coated plates at a volume of 200 μL/well. The cells were incubated at 37°C in a humidified incubator with 5% CO2 for 48 h. The recovery medium was replaced with maintenance medium and procedure repeated every Monday, Wednesday, and Friday for 18 days. On day 18, the maintenance medium was replaced with pre‐incubation medium for 72 h. On day 21, the cells were incubated with test compounds in serum‐free induction medium for 48 h. Test compounds were freshly dissolved in DMSO and then serum‐free induction medium to achieve a final DMSO concentration of 0.1% every 24 h. For enzyme induction assays, cells were thawed into recovery medium and plated into 24‐well plates at a volume of 1 mL/well. Culture conditions were as described above.
as §2, §3, §4

CYP3A4 mRNA [3] = test system: CYP3A4 mRNA
Protocol: as §5, §2, §3, §4

CYP2B6 mRNA [4] = test: CYP2B6 mRNA induction in PXR-KO HepaRG cells (real-time PCR); assay type: in vitro ADME, human; conditions: for EC50 for CYP2B6 in PXR-KO cells in comparison to other cell types (in words): PXR-KO vs 5F cells / other cell types; for E max for CYP2B6 in PXR-KO cells in comparison to other cell types (in words): PXR-KO vs 5F, HepaRG WT cells and PHHs; for EC50 at 48 h: human
Protocol: as §5, §2, §3, §4

CYP3A4 mRNA [5] = test: CYP3A4 mRNA induction in 5F HepaRG control cells (real-time PCR); conditions: for EC50 at 48 h: human, 5F HepaRG control cells; for EC50: read-out: EC50, induction of CYP3A4 mRNA, 5F
Protocol: as §5, §2, §3, §4

CYP2B6 mRNA [6] = test: CYP2B6 mRNA induction in HepaRG wild-type cells (real-time PCR); assay type: in vitro ADME, human; conditions: for E max, induction of CYP2B6 mRNA, HepaRG: E max ± SD; for EC50: human, EC50 ± SD
Protocol: as §1, §2, §3, §4

CYP2B6 mRNA [7] = test: CYP2B6 mRNA induction in cryopreserved primary human hepatocytes (real-time PCR); conditions: 48 h; for E max, induction of CYP2B6 mRNA, primary human hepatocyte donor D3: donor D3 (Hu8132)
Protocol: (§6) Cryopreserved male human hepatocytes were thawed in CHRM and plated into a 96‐well collagen‐1‐coated plate at a density of 7.5 × 10^4 viable cells in 200 μL of CHPM. Trypan blue exclusion was used to determine cell viability with a cut‐off of 85% viability. The cells were incubated at 37°C in a humidified incubator with 5% CO2. Plating medium was replaced with maintenance medium following 4 h incubation and then maintained overnight before 48 h treatment with test compound. Test compounds were freshly dissolved in dimethyl sulfoxide (DMSO) and then culture medium to achieve a final DMSO concentration of 0.1%. A vehicle control of medium with 0.1% DMSO was included in all studies.
as §2, §3
(§7) Gene expression data were compared to an average of GAPDH and normalized to the control sample using the comparative threshold cycle (C(t)) method (Ct = 2^−∆∆C(t)). […] Where possible data were fitted to a sigmoidal E max model (WinNonLin Phoenix, Pharsight, 6.3.0.395). All human hepatocyte data are the average of duplicate experiments and three compound concentrations.

CYP2B6 mRNA [8] = test: in vitro; conditions: human
Protocol: as §6, §2, §3, §7

CYP3A4 mRNA [9] = test: CYP3A4 mRNA induction in PXR-KO HepaRG cells (real-time PCR)
Protocol: as §5, §2, §3, §4

CYP2B6 = CYP2B6 enzyme activity induction (bupropion, LC-MS/MS) in PXR-KO and 5F cells; assay type: in vitro ADME, human; conditions: 1.5 μmol/L CITCO, 258 μmol/L phenobarbital; bupropion 100 μmol/L, 2 h; PXR-KO vs 5F cells (Fig. 3)
Protocol: Culture conditions were as described above.
P450 enzyme activity was assessed by incubating whole‐cell monolayers for 2 h at 37°C using 100 μmol/L bupropion (CYP2B6) in unsupplemented Williams E media with a final concentration of 0.1% DMSO. Reactions were quenched by removing supernatants and diluting 1:2 into ice‐cold acetonitrile. Samples were stored at −20°C until LC‐MS/MS analysis was completed.
LC‐MS/MS analysis utilized an API‐4000 Q Trap mass spectrometer with a Turbo V atmospheric pressure electrospray ionization source (AB SCIEX, Framingham, MA). Samples (40 μL) were injected onto a Fortis C18 column (3 × 50 mm, 5 μm) and eluted by a mobile phase gradient specific for each test article (mobile phase A: 0.1% formic acid in water; mobile phase B: 0.1% formic acid in acetonitrile). Flow rate was 0.5 mL/min. MS conditions: positive or negative ionization mode (4.5 kV spray voltage); source temperature of 450°C with multiple reaction monitoring specific for each analyte and internal standard parent–product ion pairs. Peak areas of analyte and internal standard and resulting ratios were quantified using Analyst 1.5.2 (AB SCIEX, Framingham, MA).

CYP3A4 mRNA [10] = test: in vitro; conditions: human, EC50, induction of CYP3A4 mRNA, 5F
Protocol: as §5, §2, §3, §4

CYP3A4 mRNA [11] = conditions: human
Protocol: as §1, §2, §3, §4

CYP3A4 mRNA [12] = test system: CYP3A4 mRNA; remark: listed apart in the source
Protocol: (§8) The cells were incubated at 37°C in a humidified incubator with 5% CO2. Plating medium was replaced with maintenance medium following 4 h incubation and then maintained overnight before 48 h treatment with test compound. Test compounds were freshly dissolved in dimethyl sulfoxide (DMSO) and then culture medium to achieve a final DMSO concentration of 0.1%. A vehicle control of medium with 0.1% DMSO was included in all studies.
as §2, §3, §7

CYP3A4 mRNA [13] = test: in vitro; conditions: human, EC50, induction of CYP3A4 mRNA
Protocol: as §8, §2, §3, §7

CYP3A4 mRNA [14] = conditions: human; remark: listed apart in the source
Protocol: as §5, §2, §3, §4

CYP3A4 mRNA [15] = test: CYP3A4 mRNA induction in cryopreserved primary human hepatocytes (real-time PCR); conditions: for EC50 at 48 h: human, cryopreserved primary human hepatocytes
Protocol: as §8, §2, §3, §7

[16] = 48 h, value of each individual experiment (two per cell)
[17] = 5F HepaRG control cells, 48 h, value of each individual experiment (two per cell), read-out: EC50, induction of CYP2B6 mRNA, 5F
[18] = 5F cells, 48 h, value of each individual experiment (two per cell)
[19] = EC50, induction of CYP3A4 mRNA, 5F, 5F cells, 48 h, value of each individual experiment (two per cell)
[20] = donor D1 (Hu1455), NE = no effect observed, relative gene expression fold change <2
[21] = cryopreserved primary human hepatocytes, donor D1 (Hu1455)
[22] = cryopreserved primary human hepatocytes, donor D3 (Hu8132)
[23] = PXR-KO HepaRG cells, compared with 5F cells
[24] = PXR-KO vs 5F, HepaRG WT cells and PHHs

Compound | E max, induction of CYP3A4 mRNA, HepaRG (CYP3A4 mRNA [1]) | EC50 (CYP3A4 mRNA [1]) | E max, induction of CYP2B6 mRNA, 5F (CYP2B6 mRNA [2]; [16]) | EC50 (CYP2B6 mRNA [2]; [16]) | EC50 at 48 h (CYP2B6 mRNA [2]; [17]) | CYP3A4 induction response in PXR-KO cells (in words) (CYP3A4 mRNA [3]) | EC50 for CYP2B6 in PXR-KO cells in comparison to other cell types (in words) (CYP2B6 mRNA [4]) | E max for CYP2B6 in PXR-KO cells in comparison to other cell types (in words) (CYP2B6 mRNA [4]) | E max, induction of CYP3A4 mRNA, 5F (CYP3A4 mRNA [5]; [18]) | EC50 at 48 h (CYP3A4 mRNA [5]; [19]) | EC50 (CYP3A4 mRNA [5]; [18]) | E max, induction of CYP2B6 mRNA, HepaRG (CYP2B6 mRNA [6]) | EC50 (CYP2B6 mRNA [6]) | E max, induction of CYP2B6 mRNA, primary human hepatocyte donor D1 (CYP2B6 mRNA [7]; [20]) | E max, induction of CYP2B6 mRNA, primary human hepatocyte donor D3 (CYP2B6 mRNA [7]) | EC50 at 48 h (CYP2B6 mRNA [8]; [21]) | EC50 at 48 h (CYP2B6 mRNA [8]; [22]) | CYP2B6-induced activity response (CYP2B6) | EC50 at 48 h (CYP2B6 mRNA [4]; PXR-KO HepaRG cells, 48 h) | further results
O=C1NC(=O)C(c2ccccc2)(c2ccccc2)N1 [Phenytoin, phenytoin] | 89.6 ± 8.1 | 42.6 ± 6.6 µM | 7.3 and 10.6 | 7.8 µM | 5.1 µM | much reduced | increased | lower | 16.0 and 20.8 | 18.1 µM | 19.9 µM | 14.2 ± 3.7 | 2.7 ± 1.7 µM | – | – | – | – | – | – | E max for CYP3A4 in PXR-KO cells in comparison to other cell types (in words) (CYP3A4 mRNA [3]): lower; EC50 for CYP3A4 in PXR-KO cells in comparison to other cell types (in words) (CYP3A4 mRNA [3]): increased
CO[C@H]1/C=C/O[C@@]2(C)Oc3c(C)c(O)c4c(O)c(c(/C=N/N5CCN(C)CC5)c(O)c4c3C2=O)NC(=O)/C(C)=C\C=C\[C@H](C)[C@H](O)[C@@H](C)[C@@H](O)[C@@H](C)[C@H](OC(C)=O)[C@@H]1C [Rifampicin, rifampicin] | – | – | 18.9 and 12.9 | 1.7 µM and 0.7 µM | – | – | – | – | – | – | – | 5.2 ± 2.9 | 0.3 ± 0.2 µM | 3.9 | 16.3 | 0.1 µM | 5.5 µM | – | – | E max, induction of CYP2B6 mRNA, primary human hepatocyte donor D2 (CYP2B6 mRNA [7]; donor D2 (Hu1601), NE = no effect observed, relative gene expression fold change <2): 4.3; EC50 at 48 h (CYP2B6 mRNA [8]; cryopreserved primary human hepatocytes, donor D2 (Hu1601)): 5.2 µM; CYP2B6 induction response in PXR-KO cells (in words) (CYP2B6 mRNA [4]; [23]): No response
NC(=O)N1c2ccccc2C=Cc2ccccc21 [Carbamazepine, carbamazepine] | 33.5 ± 12.6 | 24 ± 12.2 µM | 3.1 and 7.4 | 5.4 µM | 8.4 µM | – | increased | lower | 29.3 and 21.6 | 37.4 µM | – | 10.7 ± 4.3 | 12 ± 7.3 µM | – | – | – | – | – | – | E max for CYP3A4 in PXR-KO cells in comparison to other cell types (in words) (CYP3A4 mRNA [9]; [24]): ~four‐fold lower; EC50 for CYP3A4 in PXR-KO cells in comparison to other cell types (in words) (CYP3A4 mRNA [9]; [24]): similar; EC50 at 48 h (CYP3A4 mRNA [9]; human, PXR-KO HepaRG cells): 49 µM; EC50 at 48 h (CYP3A4 mRNA [5]; EC50 of CYP3A4 induction in 5F cells, single value given in text, data the average of two experiments): 38 µM
CCC1(c2ccccc2)C(=O)NC(=O)NC1=O [Phenobarbital, phenobarbital] | – | – | 5.9 and 5.5 | 195 µM | – | much reduced | in agreement between the cell lines | – | – | – | – | 68.9 ± 47.3 | 170 ± 6.8 µM | 20.2 | 26.3 | – | – | greater in the PXR‐KO cells | 98 µM | EC50 (CYP2B6 mRNA [7]; read-out: EC50, induction of CYP2B6 mRNA, primary human hepatocyte donor D1, donor D1 (Hu1455)): 98.9 µM; EC50 at 48 h (CYP2B6 mRNA [8]; male): 186 µM; EC50 (CYP3A4 mRNA [10]): 108 µM; E max, induction of CYP3A4 mRNA, HepaRG (CYP3A4 mRNA [11]): 110.0 ± 12.8; E max, induction of CYP3A4 mRNA, primary human hepatocyte donor D2 (CYP3A4 mRNA [12]; hepatocytes): 13.3; E max, induction of CYP3A4 mRNA, primary human hepatocyte donor D3 (CYP3A4 mRNA [12]; hepatocytes): 81.8; EC50 (CYP3A4 mRNA [12]; male, human): 251 µM; EC50 (CYP3A4 mRNA [13]; primary human hepatocyte donor D1): 250 µM; EC50 (CYP3A4 mRNA [13]; primary human hepatocyte donor D2): 366 µM; EC50 (CYP3A4 mRNA [13]; primary human hepatocyte donor D3): 177 µM; E max, induction of CYP3A4 mRNA, 5F (CYP3A4 mRNA [14]): 17.3, 28.1; EC50 (CYP3A4 mRNA [14]): 166 µM; EC50 at 48 h (CYP2B6 mRNA [2]; 48 h, value of each individual experiment (two per cell), read-out: EC50, induction of CYP2B6 mRNA, 5F): 145 µM; E max of CYP3A4 induction in PXR-KO cells (CYP3A4 mRNA [3]; human): 3.3; E max of CYP2B6 induction in PXR-KO cells (CYP2B6 mRNA [4]; PXR-KO HepaRG cells, 48 h): 11.8
Clc1ccc(-c2nc3sccn3c2C=NOCc2ccc(Cl)c(Cl)c2)cc1 [CITCO, 6‐(4‐chlorophenyl)imidazo[2,1‐b][1,3]thiazole‐5‐carbaldehyde O‐(3,4‐dichlorobenzyl)oxime] | 21.1 ± 4.6 | 1.5 ± 0.1 µM | 17.0 and 22.5 | 1 µM | – | – | – | similar | 6.4 and 7.1 | 1.9 µM | 2 µM | 14.2 ± 7.4 | 0.03 ± 0.01 µM | 6.0 | 5.5 | 0.2 µM | 0.3 µM | greater in the PXR‐KO cells | 0.3 µM | E max, induction of CYP3A4 mRNA, primary human hepatocyte donor D1 (CYP3A4 mRNA [15]; donor D1 (Hu1455), 48 h): 3.5; E max, induction of CYP3A4 mRNA, primary human hepatocyte donor D3 (CYP3A4 mRNA [15]; donor D3 (Hu8132), 48 h): 2.3; EC50 at 48 h (CYP3A4 mRNA [15]; donor D1 (Hu1455)): 0.3 µM; EC50 at 48 h (CYP3A4 mRNA [15]; donor D3 (Hu8132)): 0.4 µM; CYP3A4 induction response in PXR-KO cells (in words) (CYP3A4 mRNA [9]; [23]): maintained; CYP2B6 induction response in 5F cells (in words) (CYP2B6 mRNA [2]): responsive; EC50 at 48 h (CYP2B6 mRNA [2]; 5F HepaRG control cells, single value given in text, data the average of two experiments, read-out: EC50 of CYP2B6 induction in 5F cells): 0.5 µM
